Experimental data as given in patent US20250313572A1, “MACROCYCLIC MCL-1 INHIBITORS AND METHODS OF USE” (AbbVie Inc., priority 2017, published 2025).
Read-outs that look alike come from different tables or passages of the source. Marks after values point to notes of the source that are not given here.

Assays:
AMO-1 xenograft = AMO-1 xenograft model of multiple myeloma; format: in vivo, female SCID/bg mice; details: 25 mg/kg/day, IP/QDx1
Experimental: Tumors were size matched at approximately 200 mm^3. […] Tumor volume was estimated two to three times weekly. […] Seven or eight mice were housed per cage. Food and water were available ad libitum.
Tumor growth inhibition is calculated by 100*(1−Tv/Cv) where Tv and Cv are the mean tumor volumes of the treated and control groups, respectively.

[1] = tested on: AMO-1 human multiple myeloma tumor cell line; assay: AMO-1 cell viability assay (CellTiter-Glo, 24 hours); format: cell-based
[2] = tested on: NCI-H929 human multiple myeloma tumor cell line; assay: NCI-H929 cell viability assay (CellTiter-Glo, 24 hours); format: cell-based
GST-MCL-1 = GST-MCL-1 (Homo sapiens, UniProt Q07820); assay: TR-FRET MCL-1 binding assay (competition with probe F-Bak)
GST-MCL-1, sequence (Q07820 whole entry): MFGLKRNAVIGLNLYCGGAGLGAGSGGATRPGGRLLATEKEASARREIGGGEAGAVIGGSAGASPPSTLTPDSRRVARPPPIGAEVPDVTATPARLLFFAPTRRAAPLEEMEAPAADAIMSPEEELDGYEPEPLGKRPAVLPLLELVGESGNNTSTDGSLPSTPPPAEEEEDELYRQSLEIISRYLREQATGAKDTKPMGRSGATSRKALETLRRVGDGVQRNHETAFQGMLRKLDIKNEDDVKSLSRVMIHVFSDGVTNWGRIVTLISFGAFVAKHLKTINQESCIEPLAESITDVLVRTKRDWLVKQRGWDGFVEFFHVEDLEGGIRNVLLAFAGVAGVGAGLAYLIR
Outline: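 Displacement of F-Bak from GST-MCL-1 is detected by time-resolved FRET with a Tb-labelled anti-GST antibody, with excitation 340/35 nm and emission 520/525 and 495/510 nm, after 2 hours at room temperature. Compounds were titrated in 11 three-fold steps starting at 25 μM final, in buffer alone or in 10% HS.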

[3] = Homo sapiens, AMO1, 24 h, read-out: AMO-1 Viability IC50 (μM, 10% FBS), 10% FBS, 24 hours of compound treatment
[4] = Homo sapiens, NCI-H929, 24 h, read-out: H929 Viability IC50 (μM, 10% FBS), 10% FBS, 24 hours of compound treatment
[5] = MCL-1 Binding Ki (nM, 10% HS), in the presence of 10% HS (human serum)
[6] = without HS, read-out: MCL-1 Binding Ki

Structure (SMILES)	TGD (%) (AMO-1 xenograft)	TGImax (%) (AMO-1 xenograft)	IC50 [1, 3] [nM]	IC50 [2, 4] [µM]	Ki (GST-MCL-1; [5]) [nM]	Ki (GST-MCL-1; [6]) [nM]	IC50 ([1]; read-out: AMO-1 Viability IC50 (μM, 10% FBS), 10% FBS, 24 hours of compound treatment) [nM]	IC50 ([2]; read-out: H929 Viability IC50 (μM, 10% FBS), 10% FBS, 24 hours of compound treatment) [µM]
COCCOCCOCCOCCN1CCN(C[C@@H]2COc3ccc(OCc4ccnc(-c5ccccc5OC)n4)c(c3)C[C@H](C(=O)O)Oc3ncnc4sc(-c5ccc(F)cc5)c(c34)-c3ccc(c(Cl)c3C)O2)CC1 (atropisomer, axis not shown) [Example 4, (7R,16R,21S)-19-chloro-1-(4-fluorophenyl)-10-{[2-(2-methoxyphenyl)pyrimidin-4-yl]methoxy}-20-methyl-16-{[4-(2,5,8,11-tetraoxatridecan-13-yl)piperazin-1-yl]methyl}-7,8,15,16-tetrahydro-18,21-etheno-13,9-(metheno)-6,14,17-trioxa-2-thia-3,5-diazacyclononadeca[1,2,3-cd]indene-7-carboxylic Acid]	33* %	54* %	7	0.011	0.052	0.007		
COCCOCCOCCOCCOCCOCC1(C)CC=C(c2nccc(COc3ccc4cc3C[C@H](C(=O)O)Oc3ncnc5sc(-c6ccc(F)cc6)c(c35)-c3c(C)c(Cl)c(c(Cl)c3C)O[C@H](CN3CCN(C)CC3)CO4)n2)CC1 (single isomer, unassigned) [Example 84, (7R,16R)-19,23-dichloro-1-(4-fluorophenyl)-10-({2-[(4R*)-4-(2,5,8,11,14,17-hexaoxaoctadecan-1-yl)-4-methylcyclohex-1-en-1-yl]pyrimidin-4-yl}methoxy)-20,22-dimethyl-16-[(4-methylpiperazin-1-yl)methyl]-7,8,15,16-tetrahydro-18,21-etheno-13,9-(metheno)-6,14,17-trioxa-2-thia-3,5-diazacyclononadeca[1,2,3-cd]indene-7-carboxylic Acid]	33* %	71* %	0.175	0.000528	0.232	0.033		
COCCOCCOCC1(F)CC=C(c2nccc(COc3ccc4cc3C[C@H](C(=O)O)Oc3ncnc5sc(-c6ccc(F)cc6)c(c35)-c3c(C)c(Cl)c(c(Cl)c3C)O[C@H](CN3CCN(C)CC3)CO4)n2)CC1 (single isomer, unassigned) [Example 87, (7R,16R)-19,23-dichloro-10-({2-[(4R*)-4-fluoro-4-{[2-(2-methoxyethoxy)ethoxy]methyl}cyclohex-1-en-1-yl]pyrimidin-4-yl}methoxy)-1-(4-fluorophenyl)-20,22-dimethyl-16-[(4-methylpiperazin-1-yl)methyl]-7,8,15,16-tetrahydro-18,21-etheno-13,9-(metheno)-6,14,17-trioxa-2-thia-3,5-diazacyclononadeca[1,2,3-cd]indene-7-carboxylic Acid]	158* %	99* %			0.068	0.004	0.0959	0.000253
COCCOCCOCCN1CCN(C[C@@H]2COc3ccc(OCc4ccnc(-c5ccccc5OC)n4)c(c3)C[C@H](C(=O)O)Oc3ncnc4sc(-c5ccc(F)cc5)c(c34)-c3ccc(c(Cl)c3C)O2)CC1 (atropisomer, axis not shown) [Example 5, (7R,16R,21S)-19-chloro-1-(4-fluorophenyl)-16-[(4-{2-[2-(2-methoxyethoxy)ethoxy]ethyl}piperazin-1-yl)methyl]-10-{[2-(2-methoxyphenyl)pyrimidin-4-yl]methoxy}-20-methyl-7,8,15,16-tetrahydro-18,21-etheno-13,9-(metheno)-6,14,17-trioxa-2-thia-3,5-diazacyclononadeca[1,2,3-cd]indene-7-carboxylic Acid]	17* %	55* %	4	0.008	0.057	0.009		
COCCOCCOCCOCCOCCOCCOCCOCCOCCOCCOCCNC(=O)c1ccc(-c2nccc(COc3ccc4cc3C[C@H](C(=O)O)Oc3ncnc5sc(-c6ccc(F)cc6)c(c35)-c3c(C)c(Cl)c(c(Cl)c3C)O[C@H](CN3CCN(C)CC3)CO4)n2)cc1 [Example 47, (7R,16R)-19,23-dichloro-1-(4-fluorophenyl)-20,22-dimethyl-16-[(4-methylpiperazin-1-yl)methyl]-10-[(2-{4-[(2,5,8,11,14,17,20,23,26,29,32-undecaoxatetratriacontan-34-yl)carbamoyl]phenyl}pyrimidin-4-yl)methoxy]-7,8,15,6-tetrahydro-18,21-etheno-13,9-(metheno)-6,14,17-trioxa-2-thia-3,5-diazacyclononadeca[1,2,3-cd]indene-7-carboxylic Acid]			18.2	0.0205	3.12	0.018		
CO[C@H]1O[C@H](COc2ccc(-c3nccc(COc4ccc5cc4C[C@H](C(=O)O)Oc4ncnc6sc(-c7ccc(F)cc7)c(c46)-c4ccc(c(Cl)c4C)CN(CCN4CCN(C)CC4)C5)n3)cc2)[C@@H](O)[C@H](O)[C@@H]1O [Example 10, methyl 6-O-{4-[4-({[(7R,20S)-7-carboxy-18-chloro-1-(4-fluorophenyl)-19-methyl-15-[2-(4-methylpiperazin-1-yl)ethyl]-7,8,15,16-tetrahydro-14H-17,20-etheno-13,9-(metheno)-6-oxa-2-thia-3,5,15-triazacyclooctadeca[1,2,3-cd]inden-10-yl]oxy}methyl)pyrimidin-2-yl]phenyl}-a-D-mannopyranoside]			> 1000	> 1	0.494	0.06		
COCCOCCOCCOc1ccccc1-c1nccc(COc2ccc3cc2C[C@@H](C(=O)O)Oc2ncnc4sc(-c5ccc(F)cc5)c(c24)-c2ccc(c(Cl)c2C)O[C@H](CN2CCN(C)CC2)CO3)n1 (atropisomer, axis not shown) [Example 2, (7S,16R,21S)-19-chloro-1-(4-fluorophenyl)-10-{[2-(2-{2-[2-(2-methoxyethoxy)ethoxy]ethoxy}phenyl)pyrimidin-4-yl]methoxy}-20-methyl-16-[(4-methylpiperazin-1-yl)methyl]-7,8,15,16-tetrahydro-18,21-etheno-9,13-(metheno)-6,14,17-trioxa-2-thia-3,5-diazacyclononadeca[1,2,3-cd]indene-7-carboxylic Acid]			210	0.276	76	4.1		
COCCOCCOCCOc1ccccc1-c1nccc(COc2ccc3cc2C[C@H](C(=O)O)Oc2ncnc4sc(-c5ccc(F)cc5)c(c24)-c2c(C)c(Cl)c(c(Cl)c2C)O[C@H](CN2CCN(C)CC2)CO3)n1 [Example 15, (7R,16R,21S)-19,23-dichloro-1-(4-fluorophenyl)-10-{[2-(2-{2-[2-(2-methoxyethoxy)ethoxy]ethoxy}phenyl)pyrimidin-4-yl]methoxy}-20,22-dimethyl-16-[(4-methylpiperazin-1-yl)methyl]-7,8,15,16-tetrahydro-18,21-etheno-9,13-(metheno)-6,14,17-trioxa-2-thia-3,5-diazacyclononadeca[1,2,3-cd]indene-7-carboxylic Acid]			0.524	0.000751	0.152	0.015		
